In patent publication US20160312179A1 (GLAXOSMITHKLINE INTELLECHTUAL PROPERTY (NO.2) LIMITED, priority 2013, published 2016):
Entries after “also recorded” stand apart in the source; their conditions may differ.

Experiments:
Format in all cases: cell-based, Chinese hamster
DG44 CHO [1] = assay: Dose response study of TCA intermediates in fed-batch shake flasks: viable cell concentration / viability; conditions: for effect on cell growth / viable cell concentration after addition: dose response, all concentrations tested, compared to control culture
Source text: (§1) Several TCA cycle intermediates were selected for a dose response experiment based on commercial availability, either the acid or its sodium salt were purchased from Sigma Aldrich to prepare stock solution feeds to be used in the study.
(§2) FIG. 1 summarizes the TCA cycle components tested and their location in the pathway. Table 1 summarizes the operation condition of shake flasks in the study as well as feed schedules for the dose response study.
(§3) Control shake flasks were set up every time an arm of the study started. Those control shake flasks were fed-batch cultures without addition of any TCA intermediate. All conditions tested were executed in duplicate shake flasks.
(§4) Shake flask cultures were sampled every other day to determine Total Cell Concentration (TCC), Viable Cell Concentration (VCC), cell viability, metabolite (glucose, lactate, glutamine, glutamate, and ammonia) concentration, and osmolality. The master sample was divided into cell-based assays (TCC, viability assays) and cell-free assays (metabolite concentration, osmolality). Back-up samples (cell-free supernatants) for future reference were produced by centrifuging a portion of the master sample and aliquoting 1.8 mL in Nunc cryovials which were subsequently stored at −70° C. Titer was determined on samples filtered through a 0.22 μm-filter.
(§5) TCC, VCC and viability were determined using an automated cell counter based on the trypan blue exclusion method (ViCell XR, Beckman Coulter). Samples were pre-treated with protease prior to cell counting (TripLE, Life Technologies, USA) using equal volumes of protease stock solution and culture. Incubation to allow dissociation was carried out for 20-25 minutes at 37° C. under gentle shaking Metabolites were measured using Nova Bioprofile (Nova Bioprofile 400); which operates on enzyme-based electrochemical reactions. Osmolality measurement was based on the freezing-point depression method (Advanced Instruments, Model N/A). Filtered cell-free samples were sent to the Bioanalytical Development group for antibody accumulation and binding activity determination (Biacore).

DG44 CHO [2] = assay: DOE interaction study in shake flasks: ammonia (NH4+) accumulation and production; conditions: for effect on ammonia (NH4+) generation / accumulation: single intermediate at selected concentration
Method: The experiment to test interactions of all the selected components was carried out in two blocks. Each one of the blocks was designed to contain center points and control shake flasks (batch cultures, no addition of any component). […] All conditions were run in duplicates. Shake flask cultures were sampled every other day to determine Total Cell Concentration (TCC), Viable Cell Concentration (VCC), cell viability, metabolite (glucose, lactate, glutamine, glutamate, and ammonia) concentration, and osmolality. The master sample was divided into cell-based assays (TCC, viability assays) and cell-free assays (metabolite concentration, osmolality). Back-up samples (cell-free supernatants) for future reference were produced by centrifuging a portion of the master sample and aliquoting 1.8 mL in Nunc cryovials which were subsequently stored at −70° C. Titer was determined on samples filtered through a 0.22 μm-filter. TCC, VCC and viability were determined using an automated cell counter based on the trypan blue exclusion method (ViCell XR, Beckman Coulter). Samples were pre-treated with protease prior to cell counting (TripLE, Life Technologies, USA) using equal volumes of protease stock solution and culture. Incubation to allow dissociation was carried out for 20-25 minutes at 37° C. under gentle shaking Metabolites were measured using Nova Bioprofile (Nova Bioprofile 400); which operates on enzyme-based electrochemical reactions. Osmolality measurement was based on the freezing-point depression method (Advanced Instruments, Model N/A). Filtered cell-free samples were sent to the Bioanalytical Development group for antibody accumulation and binding activity determination (Biacore).

DG44 CHO [3] = assay: Dose response study in shake flasks: ammonia (NH4+) accumulation and production; conditions: for effect on ammonia (NH4+) accumulation: dose response, intermediate used alone, compared to control culture
Method: as §1, with “study. Selected compounds were pyruvic acid, citric acid, α-ketoglutaric acid, fumaric acid, malic acid (or sodium salts), and oxaloacetic acid (no sodium salt available).” for “study.”
as §2, with “Oxaloacetic acid and malic acid were added to the culture to a final concentration of 5 mM, 10 mM and 15 mM. […] FIG.” for “FIG.”
as §3, §4, §5

DG44 CHO [4] = assay: Dose response study in shake flasks: cell-specific productivity
Method: as §1, with “study. Selected compounds were pyruvic acid, citric acid, α-ketoglutaric acid, fumaric acid, malic acid (or sodium salts), and oxaloacetic acid (no sodium salt available).” for “study.”
as §2, with “Oxaloacetic acid and malic acid were added to the culture to a final concentration of 5 mM, 10 mM and 15 mM. […] FIG.” for “FIG.”
as §3
as §4, with “Back-up samples (cell-free supernatants) for future reference were produced by centrifuging a portion of the master sample and aliquoting 1.8 mL in Nunc cryovials which were subsequently stored at −70° C.” left out
(§6) TCC, VCC and viability were determined using an automated cell counter based on the trypan blue exclusion method (ViCell XR, Beckman Coulter). […] Incubation to allow dissociation was carried out for 20-25 minutes at 37° C. under gentle shaking Metabolites were measured using Nova Bioprofile (Nova Bioprofile 400); which operates on enzyme-based electrochemical reactions. […]
Integral of Viable Cells was calculated using VCC data and applying the trapezoid rule following the formula,
Specific Productivity was calculated using the last titer data point divided by last calculated IVC value.

DG44 CHO [5] = assay: Dose response study in shake flasks: lactate accumulation; conditions: 45 mM added to the culture
Method: as §1, with “study. Selected compounds were pyruvic acid, citric acid, α-ketoglutaric acid, fumaric acid, malic acid (or sodium salts), and oxaloacetic acid (no sodium salt available).” for “study.”
as §2, with “Oxaloacetic acid and malic acid were added to the culture to a final concentration of 5 mM, 10 mM and 15 mM. […] FIG.” for “FIG.”, “study. […]” for “study.”
Shake flask cultures were sampled every other day to determine Total Cell Concentration (TCC), Viable Cell Concentration (VCC), cell viability, metabolite (glucose, lactate, glutamine, glutamate, and ammonia) concentration, and osmolality. […] Titer was determined on samples filtered through a 0.22 μm-filter.
as §6

DG44 CHO [6] = assay: DOE interaction study in shake flasks: cell-specific productivity; conditions: 20 mM, alone
Method: The experiment to test interactions of all the selected components was carried out in two blocks. Each one of the blocks was designed to contain center points and control shake flasks (batch cultures, no addition of any component). […] All conditions were run in duplicates. Shake flask cultures were sampled every other day to determine Total Cell Concentration (TCC), Viable Cell Concentration (VCC), cell viability, metabolite (glucose, lactate, glutamine, glutamate, and ammonia) concentration, and osmolality. The master sample was divided into cell-based assays (TCC, viability assays) and cell-free assays (metabolite concentration, osmolality). […] Titer was determined on samples filtered through a 0.22 μm-filter. TCC, VCC and viability were determined using an automated cell counter based on the trypan blue exclusion method (ViCell XR, Beckman Coulter). […] Incubation to allow dissociation was carried out for 20-25 minutes at 37° C. under gentle shaking Metabolites were measured using Nova Bioprofile (Nova Bioprofile 400); which operates on enzyme-based electrochemical reactions. […] Integral of Viable Cells was calculated using VCC data and applying the trapezoid rule following the formula, Specific Productivity was calculated using the last titer data point divided by last calculated IVC value.

For `O=C(O)CC(O)(CC(=O)O)C(=O)O` [citric acid], the “effect on cell growth / viable cell concentration after addition” value (DG44 CHO [1]) was “deleterious effects on culture”.

In the case of `O=C(O)/C=C/C(=O)O` [fumaric acid], the “effect on cell growth / viable cell concentration after addition” value (DG44 CHO [1]) is reported as “reduced cell growth”, the “effect on ammonia (NH4+) generation / accumulation” value (DG44 CHO [2]) is reported as “slows down” and the “doses needed to stabilize ammonia production (and accumulation)” value (DG44 CHO [3]; after Day 10 of culture) is reported as 30 mM and 45 mM. The “effect on ammonia (NH4+) accumulation” value (DG44 CHO [3]) was “only partial effect”.

With `O=C(O)CC(O)C(=O)O` (stereo not shown) [malic acid] the “decline in viability compared to control shake flasks” value (DG44 CHO [1]; 5 mM) was “no decline in viability”, the decline in viability (DG44 CHO [1]; 30 mM) was “fastest decline in viability” and the “concentrations toxic to cells” value (DG44 CHO [1]; dose response experiment) was “higher than 5 mM”. For the same compound, the “cell viability of the culture” value (DG44 CHO [1]; high concentration (15 mM and 30 mM)) was “induced loss of cell viability”, the “effect on ammonia (NH4+) generation / accumulation” value (DG44 CHO [2]) was “suppress ammonia generation for a few days” and the “effect on ammonia (NH4+) generation / accumulation” value (DG44 CHO [2]; listed as malate) was “partially reduced”. The “effect on NH4+ accumulation or production” value (DG44 CHO [3]; 5 mM) was “not a clear effect”.

For `O=C(O)CC(=O)C(=O)O` [oxaloacetic acid], the “effect on cell growth / viable cell concentration after addition” value (DG44 CHO [1]) was “did not have any deleterious effect on cell growth”, the “effect on final cell-specific productivity” value (DG44 CHO [4]; dose response, compared to control) was “sustained cell-specific productivity values” and the “effect on ammonia (NH4+) generation / accumulation” value (DG44 CHO [2]) was “partially reduced”. The “cell-specific production rate and NH4+ accumulation” value (DG44 CHO [3]; 10 mM and 15 mM) was “reduce”, the “concentrations in the culture that control ammonia and maintain cell-specific productivity” value (DG44 CHO [3]; dose response conclusion) was 5 to 15 mM and the “effect on ammonia (NH4+) accumulation” value (DG44 CHO [3]) was “reduction in the ammonia accumulation levels”.

In the case of `CC(=O)C(=O)O` [pyruvic acid], the lactate accumulation (DG44 CHO [5]) is reported as “around 3 g/L”, the cell-specific productivity (DG44 CHO [4]; 45 mM, control averaged 31 pg/cell/day) is reported as roughly 24 pg/cell/day and the “effect on ammonia (NH4+) generation / accumulation” value (DG44 CHO [2]) is reported as “suppress ammonia generation for a few days”. For the same compound, the “effect on ammonia (NH4+) generation / accumulation” value (DG44 CHO [2]; listed as pyruvate) was “partially reduced”, the “ammonia accumulated, compared to control shake flasks” value (DG44 CHO [3]; 15 mM) was “slightly higher level than that found in control shake flasks” and the “effect on the reduction of ammonia” value (DG44 CHO [3]; 15 mM) was “minor effect on the reduction of ammonia”. For the same compound, the “ammonia accumulated to” value (DG44 CHO [3]; 30 mM) was 8 mM, the “ammonia consumption effect lasted to culture day” value (DG44 CHO [3]; 30 mM) was 8 days and the “ammonia consumption induced up to culture day” value (DG44 CHO [3]; 45 mM added on Day 5) was 10 days. The final ammonia concentration (DG44 CHO [3]; 45 mM added on Day 5) was 7 mM and the “effect on ammonia (NH4+) accumulation” value (DG44 CHO [3]) was “dependent on the dose, but the effect lasts only for a few days”.

With `O=C(O)CCC(=O)C(=O)O` [α-ketoglutaric acid] the “effect on cell growth / viable cell concentration after addition” value (DG44 CHO [1]) was “cell division seems to stop”, the “reduction of the cell-specific productivity compared to the control” value (DG44 CHO [4]; used alone (FIGS. 21 and 22)) was 10-20% and the “effect on ammonia generation” value (DG44 CHO [2]; 20 mM, alone) was “control ammonia generation”. For the same compound, the “effect on ammonia (NH4+) generation / accumulation” value (DG44 CHO [2]) was “consumed”, the cell-specific productivity (DG44 CHO [6]) was roughly 30 pg/cell/day and the “most effective concentration to reduce production of NH4+” value (DG44 CHO [3]; 15, 30, 45 mM tested) was 45 mM. The “cell-specific NH4+ production rate” value (DG44 CHO [3]; all concentrations tested) was “reduced” and the “effect on ammonia (NH4+) accumulation” value (DG44 CHO [3]; listed as α-KG) was “reduced; also recorded: most effective”.
